Measured values taken from patent US10835500B2, “Medicament for accelerated wound healing” (Symrise AG, priority 2014, dated 2020).

How the values were obtained:
Format in all cases: cell-based, human
HaCaT cells [1] = experiment: Morphology and propidium iodide staining after 5-day stimulation, HaCaT cells; conditions: 5-day incubation with 500 μM
Protocol: In order to obtain initial data on possible physiological effects caused by the activation of OR2AT4, HaCaT cells and primary keratinocytes were stimulated for five days with Sandalore®. […] A lethal effect of the odorant can therefore be ruled out (FIG. 16a).
Effect of Sandalore® long-term stimulation on morphology, growth, and migration processes in keratinocytes. A) Phase contrast image and PI stains of HaCaT cells and primary keratinocytes after stimulation with Sandalore® (500 μM) or 0.1% DMSO (control) for five days. On positive PI staining, the cell nuclei are stained red. Scale: 100 μm. B) Evaluation of the proliferation assay carried out with the CyQuant Cell Proliferation Kit on HaCaT cells after 5-day stimulation with 500 μM of Sandalore® or 0.1% DMSO (control). For the RNA interference experiments, the cells were transfected with siRNA or scRNA on the day before Sandalore® stimulation. Shown is the mean cell count including standard error relative to untreated cells. Mann-Whitney U test; n=3 experiments. *: p<0.05; **: p<0.01. S: Sandalore. C) Agarose assay for determination of migration of HaCaT cells. Top: Transmitted light images of HaCaT cells that have migrated in the direction of Sandalore® (500 μM) or 0.1% DMSO. […] The longest path traversed by the cells and the overgrown area were measured and compared to the control (0.1% DMSO). […]

HaCaT cells [2] = experiment: Agarose migration assay with HaCaT cells; conditions: 500 μM versus 0.1% DMSO, five days
Protocol: For this reason, an agarose migration assay was conducted in order to determine whether the increased cell growth is accompanied by increased chemotactic behavior.
Effect of Sandalore® long-term stimulation on morphology, growth, and migration processes in keratinocytes. A) Phase contrast image and PI stains of HaCaT cells and primary keratinocytes after stimulation with Sandalore® (500 μM) or 0.1% DMSO (control) for five days. On positive PI staining, the cell nuclei are stained red. Scale: 100 μm. B) Evaluation of the proliferation assay carried out with the CyQuant Cell Proliferation Kit on HaCaT cells after 5-day stimulation with 500 μM of Sandalore® or 0.1% DMSO (control). For the RNA interference experiments, the cells were transfected with siRNA or scRNA on the day before Sandalore® stimulation. Shown is the mean cell count including standard error relative to untreated cells. Mann-Whitney U test; n=3 experiments. *: p<0.05; **: p<0.01. S: Sandalore. C) Agarose assay for determination of migration of HaCaT cells. Top: Transmitted light images of HaCaT cells that have migrated in the direction of Sandalore® (500 μM) or 0.1% DMSO. The growth margin of the cells was surrounded in black. Scale: 250 μm. Bottom: Evaluation of the proliferation assay. The longest path traversed by the cells and the overgrown area were measured and compared to the control (0.1% DMSO). Paired two-sided T test. […]

[3] = tested on: cAMP content of HaCaT cells; experiment: cAMP assay (cAMP-Glo) in HaCaT cells
Protocol: In order to identify the calcium channel through which calcium ions flow from the outside into the cytosol of the skin cells, the CNG channel blocker L-cis-diltiazem was used. […] An additional cAMP assay was conducted in order to verify the data of pharmacological characterization by means of the calcium imaging technique. For this purpose, HaCaT cells with various Sandalore® concentrations were stimulated, and cAMP content was determined.
Pharmacological characterization of Sandalore®-induced signal cascade in human keratinocytes. A)-D). Shown are representative calcium imaging traces of primary keratinocytes in the presence of a blocker (blue). The horizontal bars correspond to the application times. 100 μM of ATP was used at the end of each measurement as a positive control stimulus. A) Measurement with calcium-free extracellular solution (+10 mM EGTA). B) Measurement with the adenylyl cyclase blocker SQ-22536 (100 μM). C) Use of the phospholipase-C blocker U-73122 (10 μM). 100 μM of histamine was taken as a positive control. D) Measurement with the CNG channel blocker L-cis-diltiazem (150 μM). E) Overview of pharmacological measurement of HaCaT cells and primary keratinocytes (Kera). […] Significance was determined between HaCaT cells stimulated with Sandalore® and stimulated with an equivalent volume of DMSO (0.2%). […]

protein kinase Akt = experiment: Western Blot, phosphorylation of protein kinase Akt in HaCaT cells
Protocol: In addition to the phosphorylated kinases already detected, the phosphorylation of protein kinase Akt was investigated. For this purpose, HaCaT cells were stimulated with Sandalore® for 0, 5, 15 and 30 min, and phosphorylation was investigated by means of Western Blot assays and special antibodies to the unphosphorylated or phosphorylated form of the Akt-protein.
Investigation of interleukin secretion and phosphorylation of Akt protein kinase after Sandalore® stimulation. A) Investigation of the regulation of interleukins in HaCaT cells by means of qRT-PCR after stimulation with Sandalore® (500 μM) for 6 h and 24 h. 0.1% DMSO was used as a control. GAPDH was used as a reference gene, and the relative expression between untreated and stimulated cells was determined. Mean values including standard error. n=3 experiments. B) ELISA assay for the detection of interleukins in the supernatant of HaCaT cells stimulated for 24 h with Sandalore® (500 μM). 0.1% DMSO was used as a control. The measured optical density of the treated cells at 450 nm was expressed relative to the background. Supernatants of three independent stimulations were used. Mean values including standard error. Mann-Whitney U test. *: p<0.05. C) Western Blot for investigating phosphorylation of Akt protein kinase by HaCaT cells stimulated for 0, 5, 15, and 30 min with Sandalore® (500 μM). […]

CC1=CCC(CCC(C)C(C)O)C1(C)C (stereo not drawn) [Sandalore®]
morphological changes or PI staining (lethal effect) (HaCaT cells [1]): neither the HaCaT cells nor the keratinocytes showed morphological changes or PI staining
chemotactic migration of the HaCaT cells (HaCaT cells [2]): significant chemotactic migration
cAMP content ([3]; 10-minute stimulation with various concentrations): dose-dependent cAMP increase
EC50 ([3]; 10-minute stimulation, 1 μM-10,000 μM, read-out: EC50 value of cAMP increase): 197 µM
time until Akt kinase was phosphorylated (protein kinase Akt; 500 μM, 0, 5, 15 and 30 min): ≤ 5 min
activation of the protein kinase Akt (protein kinase Akt; summary statement): activated
